Columns and labels:
[1] = system: CYP2C9; conditions: CYP2C9, with vs without cytochrome b5; cited from earlier work
[2] = system: CYP2C11; test: Contribution of CYP to AAI oxidation in rat liver; format: in vitro ADME
Protocol: (§1) In order to calculate the contributions of individual CYPs to AAI oxidation in human and rat livers, we utilized the velocities of AAI oxidation to AAIa by the Supersomal CYP enzyme systems containing cytochrome b5 (Figure 2) in the combination with the data on the expression levels of CYPs in human and rat livers. The contributions of these enzymes were calculated by relative activity factor because the activities of CYP in Supersomes™ should be considered in addition to the relative contents of CYPs in the livers. Therefore, the contributions of each CYP that oxidizes AAI in livers were calculated by dividing of the relative activity of each of such CYPs oxidizing AAI [r.a.cypi] (rate of AAI oxidation multiplied by amounts of this CYP in tissues examined), by the total relative activities (∑[r.a.cypi]) of all CYPs oxidizing this substrate. Of human liver CYPs, CYP3A4 is the major enzyme present in this human organ (~30% of the CYP hepatic complement), followed by CYP2C9 and 1A2 (~15% and ~13%, respectively), while CYP2C19, 2E1 2A6, 2D6, 2C8, and 3A5 are present in human liver in levels of the range of ~8.5%–~2.5% of the liver CYPs (see [58] for an overview). CYPs of the 2C subfamily (CYP2C6, 2C11, 2C12, and 2C13) are the major enzymes expressed in rat livers accounting of ~55% of the CYP complement. Of the CYP2C complement, ~50% and ~20% correspond to CYP2C11 and 2C6, respectively. Of the other CYPs, CYP2E1, 3A, 2D, 2A, 2B, and 1A enzymes are also present in rat livers, expressed in levels of ~15%, ~10%, ~7%, ~6%, ~5%, and ~2%, respectively.

[3] = system: CYP1A1; test: Contribution of CYP to AAI oxidation in rat liver; format: in vitro ADME
Protocol: as §1

[4] = system: CYP2C subfamily; test: Contribution of CYP to AAI oxidation in rat liver; format: in vitro ADME
Protocol: as §1

[5] = system: CYP1A subfamily; test: Contribution of CYP to AAI oxidation in rat liver; format: in vitro ADME
Protocol: as §1

[6] = system: CYP2C6; test: Contribution of CYP to AAI oxidation in rat liver; format: in vitro ADME
Protocol: as §1

[7] = system: human CYP1A2; conditions: CYP1A2, with vs without cytochrome b5; cited from earlier work
[8] = system: CYP3A4; test: Contribution of CYP to AAI oxidation in human liver; format: in vitro ADME; conditions: from Supersomal velocities with cytochrome b5 and CYP expression levels
Protocol: as §1

[9] = system: CYP2C19; test: as above; format: in vitro ADME
Protocol: as §1

[10] = system: CYP2C8; test: as above; format: in vitro ADME
Protocol: as §1

[11] = system: CYP2B6; test: as above; format: in vitro ADME
Protocol: as §1

[12] = system: CYP2C9; test: as above; format: in vitro ADME; conditions: from Supersomal velocities with cytochrome b5 and CYP expression levels
Protocol: as §1

[13] = system: CYP1A2; test: as above; format: in vitro ADME; conditions: from Supersomal velocities with cytochrome b5 and CYP expression levels
Protocol: as §1

[14] = system: CYP1A1; test: as above; format: in vitro ADME; conditions: from Supersomal velocities with cytochrome b5 and CYP expression levels
Protocol: as §1

[15] = system: CYP3A5; test: as above; format: in vitro ADME
Protocol: as §1

[16] = system: CYP1B1; test: as above; format: in vitro ADME
Protocol: as §1

[17] = system: CYP2E1; test: as above; format: in vitro ADME
Protocol: as §1

[18] = system: CYP2D6; test: as above; format: in vitro ADME
Protocol: as §1

[19] = system: CYP enzymes of liver microsomes that oxidise (demethylate) AAI to AAIa; test: Effect of CYP inhibitors on AAI oxidation to AAIa by rat liver microsomes; format: in vitro ADME; conditions: male, Wistar, pH 7.4, probe AAI (10 μM), inhibitor 10 μM equimolar to AAI (10 μM), 0.1 nmol CYP, mean ± SD, n = 3, NI = no inhibition, read-out: AAIa Formation (% of Control without Inhibitor) Rat Microsomes
Protocol: Microsomal fractions were prepared from livers of ten male Wistar rats (AnLab, Prague, Czech Republic) by differential centrifugation as described previously.
(§2) Incubation mixtures (250 μL) contained 100 mM potassium phosphate buffer (pH 7.4), 1 mM NADPH, 1 mg human or rat liver microsomal protein and 10 μM AAI [30, 43]. […] Control incubations were performed (i) without microsomal proteins; (ii) without NADPH; or (iii) without AAI. […] For Supersomes™, incubation mixtures (final volume 250 μL) consisted of 100 mM potassium phosphate buffer (pH 7.4), 1 mM NADP^+, 10 mM MgCl2, 10 mM D-glucose 6-phosphate, 1 U/mL D-glucose 6-phosphate dehydrogenase (NADPH-generating system), 50 nM CYPs in Supersomes™, and 10 μM AAI. Supersomes™ with POR alone were utilized as controls. AAI and its metabolites (i.e., AAIa) were extracted from incubation mixtures with 2 × 1 mL of ethyl acetate and evaporated to dryness; residues were dissolved in 30 μL of methanol and analyzed with reverse-phase HPLC as described.
(§3) Compounds were dissolved in 2.5 μL methanol (except for DDTC that was dissolved in distilled water) to yield final concentrations of 10 μM in the incubation mixtures. Inhibitors (10 μM) were incubated at 37 °C for 10 min with the NADPH-generating system prior to addition of 10 μM AAI, and then incubated for an additional 20 min at 37 °C. AAIa formation was analyzed by HPLC as described above.

[20] = system: CYP enzymes of liver microsomes that oxidise (demethylate) AAI to AAIa; test: Effect of CYP inhibitors on AAI oxidation to AAIa by human liver microsomes; format: in vitro ADME; conditions: pH 7.4, probe AAI (10 μM), inhibitor 10 μM equimolar to AAI (10 μM), 0.1 nmol CYP, mean ± SD, n = 3, NI = no inhibition, read-out: AAIa Formation (% of Control without Inhibitor) Human Microsomes
Protocol: as §2, §3

SMILES: COc1cccc2c1cc([N+](=O)[O-])c1c(C(=O)O)cc3c(c12)OCO3 [AAI, aristolochic acid I]
- Increase in AAIa formation by cytochrome b5 [1]: not significant
- Contribution to AAI oxidation to AAIa [2]: ~ 42%
- Contribution to AAI oxidation to AAIa [3]: ~ 1.7%
- Contribution to AAI oxidation to AAIa [4]: ~ 83%
- Contribution to AAI oxidation to AAIa [5]: ~ 17%
- Contribution to AAI oxidation to AAIa [6]: ~ 17%
- Increase in AAIa formation by cytochrome b5 [7]: not significant
- Contribution to AAI oxidation to AAIa [8]: ~ 10.5%
- Contribution to AAI oxidation to AAIa [9]: ~ 0.6%
- Contribution to AAI oxidation to AAIa [10]: ~ 1.0%
- Contribution to AAI oxidation to AAIa [11]: negligible
- Contribution to AAI oxidation to AAIa [12]: ~ 15.8%
- Contribution to AAI oxidation to AAIa [13]: ~ 47.5%
- Contribution to AAI oxidation to AAIa [14]: ~ 8.3%
- Contribution to AAI oxidation to AAIa [15]: negligible
- Contribution to AAI oxidation to AAIa [16]: negligible
- Contribution to AAI oxidation to AAIa [17]: ~ 1.1%
- Contribution to AAI oxidation to AAIa [18]: negligible

SMILES: CCN(CC)C(=S)S [DDTC, diethyldithiocarbamate]
- activity at 20 min, 10 μM [19]: 52 ± 4%
- activity at 20 min, 10 μM [20]: 96 ± 5%

SMILES: Cc1nc2c([nH]1)c(=O)n(C)c(=O)n2Cc1ccco1 [Furafylline, furafylline]
- activity at 20 min, 10 μM [19]: 84 ± 5%
- activity at 20 min, 10 μM [20]: 75 ± 4%

SMILES: C=C[C@H]1C[N@@]2CC[C@H]1C[C@@H]2[C@@H](O)c1ccnc2ccc(OC)cc12 [Quinidine, quinidine]
- activity at 20 min, 10 μM [19]: > 100%
- activity at 20 min, 10 μM [20]: > 100%

SMILES: Nc1ccc(S(=O)(=O)Nc2ccnn2-c2ccccc2)cc1 [Sulfaphenazole, sulfaphenazole]
- activity at 20 min, 10 μM [19]: 68 ± 3%
- activity at 20 min, 10 μM [20]: > 100%

SMILES: O=c1cc(-c2ccccc2)oc2c1ccc1ccccc12 [α-Napththoflavone, α-Naphthoflavone]
- activity at 20 min, 10 μM [19]: 85 ± 5%
- activity at 20 min, 10 μM [20]: 89 ± 5%

Reference: article PMC4661905, “A Mechanism of O-Demethylation of Aristolochic Acid I by Cytochromes P450 and Their Contributions to This Reaction in Human and Rat Livers: Experimental and Theoretical Approaches” (International Journal of Molecular Sciences, 2015)
